The record followed here is patent US6596772B1, “Phosphate mimics and methods of treatment using phosphatase inhibitors” (Sugen, Inc., priority 1999, dated 2003).

Holding throughout (test): PTP IC50 assay, pNPP or FDP as substrate
Type in all cases: biochemical

One assay concerns the target T1, PTP DEP1 (Homo sapiens, UniProt Q12913).
T1 construct: GST-fusion proteins encompassing the entire cytoplasmic domain was done by PCR; made in house; host or cells: E. coli BL-21 (pGEX 2T)
T1 sequence (Q12913 997-1337 limits assumed): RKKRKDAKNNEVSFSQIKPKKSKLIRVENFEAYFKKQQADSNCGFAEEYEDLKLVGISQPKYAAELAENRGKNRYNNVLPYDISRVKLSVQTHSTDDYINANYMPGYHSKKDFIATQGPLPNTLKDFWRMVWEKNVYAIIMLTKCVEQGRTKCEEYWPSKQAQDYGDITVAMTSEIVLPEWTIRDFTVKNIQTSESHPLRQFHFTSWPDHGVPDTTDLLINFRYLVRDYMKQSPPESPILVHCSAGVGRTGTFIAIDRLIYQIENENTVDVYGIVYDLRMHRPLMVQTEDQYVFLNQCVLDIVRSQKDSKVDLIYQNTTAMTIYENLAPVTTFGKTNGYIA
The settings on record: 25° C. As to the method: (§1) The following in vitro assay procedure is preferred to determine the level of activity and effect of the different compounds of the present invention on one or more of the PTPs. Similar assays can be designed along the same lines for any PTP using techniques well known in the art.
(§2) The catalytic assays described herein are performed in a 96-well format. The general procedure begins with the determination of PTP optimal pH using a three-component buffer system that minimizes ionic strength variations across a wide range of buffer pH. Next, the Michaelis-Menten constant, or Km, is determined for each specific substrate-PTP system. This Km value is subsequently used as the substrate reaction concentration for compound screening. Finally, the test PTP is exposed to varying concentrations of compound for fifteen minutes and allowed to react with substrate for ten minutes. The results are plotted as percent inhibition versus compound concentration and the IC50 interpolated from the plot.
(§3) All assays were performed using pNPP or FDP as substrate. The optimum pH was determined for each PTP used.
(§4) PTPase activity was assayed at 25° C. in a 100-μl reaction mixture containing an appropriate concentration of pNPP or FDP as substrate. The reaction was initiated by addition of the PTP and quenched after 10 min by addition of 50 μl of IN NaOH. The non-enzymatic hydrolysis of the substrate was corrected by measuring the control without the addition of the enzyme. The amount of p-nitrophenol produced was determined from the absorbance at 410 nm. To determine the kinetic parameter, Km, the initial velocities were measured at various substrate concentrations and the data were fitted to the Michaelis equation where velocity=(Vmax*[S])/(Km+[S]), and [S]=substrate reaction concentration.
(§5) The effect of the compounds on PTP was evaluated at 25° C. using pNPP or FDP as substrate. PTP was pre-incubated for fifteen minutes with various concentrations of compound. Substrate was then added at a fixed concentration (usually equal to the Km previously calculated). After 10 minutes, NaOH was added to stop the reaction. The hydrolysis of pNPP was followed at 410 nm on the Biotek Powerwave 200 microplate scanning spectrophotometer. The percent inhibition was calculated as follows: Percent Inhibition=[(control signal−compound signal)/control signal] ×100%. The IC50 was then determined by interpolation of a percent inhibition versus compound concentration plot.
(§6) Plasmids designed for bacterial GST-PTP fusion protein expression were derived by insertion of PCR-generated human PTP fragments into pGEX vectors (Pharmacia Biotech). Several of these constructs were then used to subclone phosphatases into pFastBac-1for expression in Sf-9 insect cells. Oligonucleotides used for the initial amplification of PTP genes are shown below. The cDNAs were prepared using the Gilbo BRL superscript preamplification system on RNAs purchased from Clontech.
The full length DEP1 cDNA was isolated from a human mammary cDNA library (Clontech). The construction of GST-fusion proteins encompassing the entire cytoplasmic domain was done by PCR using the following oligos; 5′oligo: 5′-[…]-3′ (SEQ ID NO: 20) 3′oligo: 5′-[…]-3′ (SEQ ID NO: 21) It was subsequently ligated into the Eco RI/Bam H1 sites of pGEX 2T.

Another assay has as its target T2, PTP ZETA (Homo sapiens, UniProt P23471).
T2 construct: made in house; host or cells: E. coli BL-21 (pGEX 6P-1)
The settings on record: 25° C. As to the method:
as §1, §2, §3, §4, §5, §6
The PTP Zeta cDNA was amplified from human placenta single strand cDNA (Clontech RNA) using the following oligonucleotides 5′oligo: 5′-[…]-3′ (SEQ ID NO: 10) 3′oligo: 5′-[…]-3′ (SEQ ID NO: 11) and subsequently ligated into pGEX 6P-1 Eco RI/Xho I sites.

The target of the next assay is T3, PTP MU (Homo sapiens, UniProt P28827).
T3 construct: made in house; host or cells: E. coli BL-21 (pGEX 6P-1)
T3 sequence (P28827 831-1186 limits assumed): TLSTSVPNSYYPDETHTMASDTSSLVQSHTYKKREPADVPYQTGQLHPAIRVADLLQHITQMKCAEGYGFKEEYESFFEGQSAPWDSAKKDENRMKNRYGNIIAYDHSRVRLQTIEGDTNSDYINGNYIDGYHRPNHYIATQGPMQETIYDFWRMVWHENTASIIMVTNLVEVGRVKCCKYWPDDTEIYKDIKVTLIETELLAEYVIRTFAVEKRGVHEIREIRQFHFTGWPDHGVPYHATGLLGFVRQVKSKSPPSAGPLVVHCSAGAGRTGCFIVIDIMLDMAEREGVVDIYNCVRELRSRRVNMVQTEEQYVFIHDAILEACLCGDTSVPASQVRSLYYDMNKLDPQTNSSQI
The settings on record: pNPP or FDP as substrate, 25° C.; read-out: PTP IC50 Mu. The protocol:
as §1, §2, §3, §4, §5, §6
The PTP Mu cDNA was amplified from a human lung cDNA library (Clontech) using the following oligonucleotides; 5′oligo: 5′-[…]-3′ (SEQ ID NO: 18) 3′oligo: 5′-[…]-3′ (SEQ ID NO: 19) It was subsequently ligated into the Eco RI/Xho I sites of pGEX 6P-1.

The next assay addresses T4, PTP ALPHA (Homo sapiens, UniProt P18433).
T4 construct: RTPα intracellular domain construct was obtained; made in house; host or cells: E. coli BL-21 (pGEX 3X)
The settings on record: 25° C. The protocol: as §1, §2, §3, §4, §5, §6
RTPα intracellular domain construct was obtained, Schlessinger et al., U.S. Pat. No. 5,888,794, the contents of which are hereby incorporated in their entirety into the present application. The RTPα fragment was cloned into pGEX 3× using the following procedure. The portion from EclX I/Xma III/Eag I (N-terminus blunted by Klenow) to Eco RV was cloned into the Sma I site. The EclX I site is approximately 15 residues downstream of the transmembrane domain.

In the next assay the target is T5, PTP PEST (Homo sapiens, UniProt Q05209).
T5 construct: made in house; host or cells: E. coli BL-21 (pGEX 6P-1)
T5 sequence (Q05209 1-343 limits assumed): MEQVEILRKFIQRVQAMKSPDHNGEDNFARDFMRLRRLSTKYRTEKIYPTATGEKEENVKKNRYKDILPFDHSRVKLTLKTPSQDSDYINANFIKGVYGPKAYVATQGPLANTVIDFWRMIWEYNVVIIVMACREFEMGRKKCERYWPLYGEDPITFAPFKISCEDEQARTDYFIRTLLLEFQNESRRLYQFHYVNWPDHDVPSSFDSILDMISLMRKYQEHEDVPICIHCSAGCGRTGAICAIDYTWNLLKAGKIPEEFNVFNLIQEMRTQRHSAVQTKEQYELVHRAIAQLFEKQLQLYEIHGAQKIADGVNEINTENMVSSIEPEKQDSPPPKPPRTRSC
The settings on record: 25° C. The protocol:
as §1, §2, §3, §4, §5, §6
The PTP PEST CDNA was amplified from an HeLa cDNA library (Clonetech RNA) using the following oligonucleotides: 5′oligo: 5′-[…]-3′ (SEQ ID NO: 14) 3′oligo: 5′-[…]-3′ (SEQ ID NO: 15) It was subsequently ligated into the Eco RI/Xho I sites of pGEX 6P-1.

A word on the IC50: it is the concentration that inhibits the measured activity by half.

T2 sequence (P23471 1667-2028 limits assumed): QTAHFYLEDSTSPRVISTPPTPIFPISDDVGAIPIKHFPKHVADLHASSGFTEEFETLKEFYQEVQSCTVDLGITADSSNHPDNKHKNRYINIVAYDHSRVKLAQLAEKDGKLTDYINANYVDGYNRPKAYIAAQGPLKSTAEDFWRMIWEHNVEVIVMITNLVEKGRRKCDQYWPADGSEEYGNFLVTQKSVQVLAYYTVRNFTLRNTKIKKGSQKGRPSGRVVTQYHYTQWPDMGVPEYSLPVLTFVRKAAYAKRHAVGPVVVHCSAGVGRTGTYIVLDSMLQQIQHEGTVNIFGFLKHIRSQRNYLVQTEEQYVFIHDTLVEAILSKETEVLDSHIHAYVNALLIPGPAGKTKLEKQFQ

For the compound `O=S(=O)(c1ccc(SSc2ccc(S(=O)(=O)C(F)(F)F)cc2)cc1)C(F)(F)F` [Example 7, Bis (4-trifluoromethylsulfonylphenyl) disulfide], the half-inhibitory concentration (IC50) at PTP DEP1 is 41 µM; on PTP ZETA, over 100 µM; on PTP MU it was over 100 µM; on PTP ALPHA, over 100 µM; at PTP PEST, 22 µM.
